Test system: Japanese white rabbits
Assay: Ophthalmic disorder caused by 8-time-a-day instillation to white rabbits: macroscopic observation of anterior segment of the eye
Type: in vivo, rabbit
Set-up: scale not given here
Conditions: mean of three eyes
Procedure: The test drugs, Compound A and Compound C, were each dissolved in the following base at a concentration of 0.125, 0.25, 0.5 and 1.0% and adjusted to pH 7 for use in this experiment. [table] Japanese white rabbits (body weight about 2 kg) purchased from Japan Laboratory Animals, INC. were used. These animals were bred in a breeding chamber set to temperature 23±3° C., humidity 55±10% and fed on limited amount of 100 g a day of a solid feed (Labo R Stock, Nihon-Nosan Kogyo K.K.). They were allowed free access to tap water. Instillation: Using a micropipet, each test drug (100 μl) was instilled into the right eye of each animal 8 times at one hour intervals. Into the left eye was instilled a base in the same manner. Observation: anterior segment of the eye was macroscopically observed before instillation and 30 min after 2nd, 4th, 6th and 8th administrations, according to the macroscopic criteria for ocular lesions as shown in Table 1 (Naruyuki Fukui, […] no Rinshou 4, 277-289, 1970). In addition, corneal staining spot was observed before instillation and after 8th administration. [table]

[1] = 0.125%, 30 min after 2nd instillation
[2] = 0.125%, 30 min after 4th instillation
[3] = 0.125%, 30 min after 6th instillation
[4] = 0.125%, 30 min after 8th instillation
[5] = 0.25%, 30 min after 2nd instillation
[6] = 0.25%, 30 min after 4th instillation
[7] = 0.25%, 30 min after 6th instillation
[8] = 0.25%, 30 min after 8th instillation
[9] = 0.5%, 30 min after 2nd instillation
[10] = 0.5%, 30 min after 4th instillation
[11] = 0.5%, 30 min after 6th instillation
[12] = 0.5%, 30 min after 8th instillation
[13] = 1.0%, 30 min after 2nd instillation
[14] = 1.0%, 30 min after 4th instillation
[15] = 1.0%, 30 min after 6th instillation
[16] = 1.0%, 30 min after 8th instillation

Score of ocular lesions: Conjunctiva Bulbar redness [1]: 0
Score of ocular lesions: Conjunctiva Discharge [1]: 0
Score of ocular lesions: Conjunctiva Nictitating membrane [1]: 0
Score of ocular lesions: Conjunctiva Palpebral edema [1]: 0
Score of ocular lesions: Conjunctiva Palpebral redness [1]: 0
Score of ocular lesions: Cornea Area [1]: 0
Score of ocular lesions: Cornea Degree [1]: 0
Score of ocular lesions: Iris Values [1]: 0
Score of ocular lesions: Total score [1]: 0
Score of ocular lesions: Conjunctiva Bulbar redness [2]: 0.50
Score of ocular lesions: Conjunctiva Discharge [2]: 0.17
Score of ocular lesions: Conjunctiva Nictitating membrane [2]: 0.33
Score of ocular lesions: Conjunctiva Palpebral edema [2]: 0
Score of ocular lesions: Conjunctiva Palpebral redness [2]: 0
Score of ocular lesions: Cornea Area [2]: 0
Score of ocular lesions: Cornea Degree [2]: 0
Score of ocular lesions: Iris Values [2]: 0
Score of ocular lesions: Total score [2]: 0.83
Score of ocular lesions: Conjunctiva Bulbar redness [3]: 0.17
Score of ocular lesions: Conjunctiva Discharge [3]: 0.50
Score of ocular lesions: Conjunctiva Nictitating membrane [3]: 0.33
Score of ocular lesions: Conjunctiva Palpebral edema [3]: 0.17
Score of ocular lesions: Conjunctiva Palpebral redness [3]: 0.17
Score of ocular lesions: Cornea Area [3]: 0
Score of ocular lesions: Cornea Degree [3]: 0
Score of ocular lesions: Iris Values [3]: 0
Score of ocular lesions: Total score [3]: 0.84
Score of ocular lesions: Conjunctiva Bulbar redness [4]: 0.50
Score of ocular lesions: Conjunctiva Discharge [4]: 0
Score of ocular lesions: Conjunctiva Nictitating membrane [4]: 0.50
Score of ocular lesions: Conjunctiva Palpebral edema [4]: 0.33
Score of ocular lesions: Conjunctiva Palpebral redness [4]: 0.33
Score of ocular lesions: Cornea Area [4]: 0
Score of ocular lesions: Cornea Degree [4]: 0
Score of ocular lesions: Iris Values [4]: 0
Score of ocular lesions: Total score [4]: 1.66
Score of ocular lesions: Conjunctiva Bulbar redness (0.125%, Before instillation): 0
Score of ocular lesions: Conjunctiva Discharge (0.125%, Before instillation): 0
Score of ocular lesions: Conjunctiva Nictitating membrane (0.125%, Before instillation): 0
Score of ocular lesions: Conjunctiva Palpebral edema (0.125%, Before instillation): 0
Score of ocular lesions: Conjunctiva Palpebral redness (0.125%, Before instillation): 0
Score of ocular lesions: Cornea Area (0.125%, Before instillation): 0
Score of ocular lesions: Cornea Degree (0.125%, Before instillation): 0
Score of ocular lesions: Iris Values (0.125%, Before instillation): 0
Score of ocular lesions: Total score (0.125%, Before instillation): 0
Score of ocular lesions: Conjunctiva Bulbar redness [5]: 0.33
Score of ocular lesions: Conjunctiva Discharge [5]: 0
Score of ocular lesions: Conjunctiva Nictitating membrane [5]: 0.33
Score of ocular lesions: Conjunctiva Palpebral edema [5]: 0
Score of ocular lesions: Conjunctiva Palpebral redness [5]: 0
Score of ocular lesions: Cornea Area [5]: 0
Score of ocular lesions: Cornea Degree [5]: 0
Score of ocular lesions: Iris Values [5]: 0
Score of ocular lesions: Total score [5]: 0.66
Score of ocular lesions: Conjunctiva Bulbar redness [6]: 0.33
Score of ocular lesions: Conjunctiva Discharge [6]: 0
Score of ocular lesions: Conjunctiva Nictitating membrane [6]: 0.50
Score of ocular lesions: Conjunctiva Palpebral edema [6]: 0
Score of ocular lesions: Conjunctiva Palpebral redness [6]: 0.33
Score of ocular lesions: Cornea Area [6]: 0
Score of ocular lesions: Cornea Degree [6]: 0
Score of ocular lesions: Iris Values [6]: 0
Score of ocular lesions: Total score [6]: 1.50
Score of ocular lesions: Conjunctiva Bulbar redness [7]: 0.50
Score of ocular lesions: Conjunctiva Discharge [7]: 0.67
Score of ocular lesions: Conjunctiva Nictitating membrane [7]: 0.33
Score of ocular lesions: Conjunctiva Palpebral edema [7]: 0.17
Score of ocular lesions: Conjunctiva Palpebral redness [7]: 0.33
Score of ocular lesions: Cornea Area [7]: 0
Score of ocular lesions: Cornea Degree [7]: 0
Score of ocular lesions: Iris Values [7]: 0
Score of ocular lesions: Total score [7]: 2.83
Score of ocular lesions: Conjunctiva Bulbar redness [8]: 0.67
Score of ocular lesions: Conjunctiva Discharge [8]: 1.00
Score of ocular lesions: Conjunctiva Nictitating membrane [8]: 1.33
Score of ocular lesions: Conjunctiva Palpebral edema [8]: 0
Score of ocular lesions: Conjunctiva Palpebral redness [8]: 0
Score of ocular lesions: Cornea Area [8]: 0
Score of ocular lesions: Cornea Degree [8]: 0
Score of ocular lesions: Iris Values [8]: 0
Score of ocular lesions: Total score [8]: 3.00
Score of ocular lesions: Conjunctiva Bulbar redness (0.25%, Before instillation): 0
Score of ocular lesions: Conjunctiva Discharge (0.25%, Before instillation): 0
Score of ocular lesions: Conjunctiva Nictitating membrane (0.25%, Before instillation): 0
Score of ocular lesions: Conjunctiva Palpebral edema (0.25%, Before instillation): 0
Score of ocular lesions: Conjunctiva Palpebral redness (0.25%, Before instillation): 0
Score of ocular lesions: Cornea Area (0.25%, Before instillation): 0
Score of ocular lesions: Cornea Degree (0.25%, Before instillation): 0
Score of ocular lesions: Iris Values (0.25%, Before instillation): 0
Score of ocular lesions: Total score (0.25%, Before instillation): 0
Score of ocular lesions: Conjunctiva Bulbar redness [9]: 0.50
Score of ocular lesions: Conjunctiva Discharge [9]: 0
Score of ocular lesions: Conjunctiva Nictitating membrane [9]: 0.50
Score of ocular lesions: Conjunctiva Palpebral edema [9]: 0
Score of ocular lesions: Conjunctiva Palpebral redness [9]: 0
Score of ocular lesions: Cornea Area [9]: 0
Score of ocular lesions: Cornea Degree [9]: 0
Score of ocular lesions: Iris Values [9]: 0
Score of ocular lesions: Total score [9]: 1.00
Score of ocular lesions: Conjunctiva Bulbar redness [10]: 0.50
Score of ocular lesions: Conjunctiva Discharge [10]: 0.17
Score of ocular lesions: Conjunctiva Nictitating membrane [10]: 0.33
Score of ocular lesions: Conjunctiva Palpebral edema [10]: 0.33
Score of ocular lesions: Conjunctiva Palpebral redness [10]: 0.33
Score of ocular lesions: Cornea Area [10]: 0
Score of ocular lesions: Cornea Degree [10]: 0
Score of ocular lesions: Iris Values [10]: 0.33
Score of ocular lesions: Total score [10]: 1.99
Score of ocular lesions: Conjunctiva Bulbar redness [11]: 0.67
Score of ocular lesions: Conjunctiva Discharge [11]: 1.00
Score of ocular lesions: Conjunctiva Nictitating membrane [11]: 1.00
Score of ocular lesions: Conjunctiva Palpebral edema [11]: 0.33
Score of ocular lesions: Conjunctiva Palpebral redness [11]: 0.33
Score of ocular lesions: Cornea Area [11]: 0
Score of ocular lesions: Cornea Degree [11]: 0
Score of ocular lesions: Iris Values [11]: 0
Score of ocular lesions: Total score [11]: 3.83
Score of ocular lesions: Conjunctiva Bulbar redness [12]: 1.00
Score of ocular lesions: Conjunctiva Discharge [12]: 2.00
Score of ocular lesions: Conjunctiva Nictitating membrane [12]: 1.00
Score of ocular lesions: Conjunctiva Palpebral edema [12]: 2.83
Score of ocular lesions: Conjunctiva Palpebral redness [12]: 2.00
Score of ocular lesions: Cornea Area [12]: 0
Score of ocular lesions: Cornea Degree [12]: 0
Score of ocular lesions: Iris Values [12]: 0.67
Score of ocular lesions: Total score [12]: 9.50
Score of ocular lesions: Conjunctiva Bulbar redness (0.5%, Before instillation): 0
Score of ocular lesions: Conjunctiva Discharge (0.5%, Before instillation): 0
Score of ocular lesions: Conjunctiva Nictitating membrane (0.5%, Before instillation): 0
Score of ocular lesions: Conjunctiva Palpebral edema (0.5%, Before instillation): 0
Score of ocular lesions: Conjunctiva Palpebral redness (0.5%, Before instillation): 0
Score of ocular lesions: Cornea Area (0.5%, Before instillation): 0
Score of ocular lesions: Cornea Degree (0.5%, Before instillation): 0
Score of ocular lesions: Iris Values (0.5%, Before instillation): 0
Score of ocular lesions: Total score (0.5%, Before instillation): 0
Score of ocular lesions: Conjunctiva Bulbar redness [13]: 0.50
Score of ocular lesions: Conjunctiva Discharge [13]: 0
Score of ocular lesions: Conjunctiva Nictitating membrane [13]: 0.50
Score of ocular lesions: Conjunctiva Palpebral edema [13]: 0
Score of ocular lesions: Conjunctiva Palpebral redness [13]: 0.17
Score of ocular lesions: Cornea Area [13]: 0
Score of ocular lesions: Cornea Degree [13]: 0
Score of ocular lesions: Iris Values [13]: 0
Score of ocular lesions: Total score [13]: 1.17
Score of ocular lesions: Conjunctiva Bulbar redness [14]: 0.50
Score of ocular lesions: Conjunctiva Discharge [14]: 0
Score of ocular lesions: Conjunctiva Nictitating membrane [14]: 0.50
Score of ocular lesions: Conjunctiva Palpebral edema [14]: 0.17
Score of ocular lesions: Conjunctiva Palpebral redness [14]: 0.50
Score of ocular lesions: Cornea Area [14]: 0
Score of ocular lesions: Cornea Degree [14]: 0
Score of ocular lesions: Iris Values [14]: 0.67
Score of ocular lesions: Total score [14]: 2.34
Score of ocular lesions: Conjunctiva Bulbar redness [15]: 0.67
Score of ocular lesions: Conjunctiva Discharge [15]: 0.33
Score of ocular lesions: Conjunctiva Nictitating membrane [15]: 0.83
Score of ocular lesions: Conjunctiva Palpebral edema [15]: 0.50
Score of ocular lesions: Conjunctiva Palpebral redness [15]: 0.50
Score of ocular lesions: Cornea Area [15]: 0
Score of ocular lesions: Cornea Degree [15]: 0
Score of ocular lesions: Iris Values [15]: 1.00
Score of ocular lesions: Total score [15]: 3.83
Score of ocular lesions: Conjunctiva Bulbar redness [16]: 2.00
Score of ocular lesions: Conjunctiva Discharge [16]: 2.33
Score of ocular lesions: Conjunctiva Nictitating membrane [16]: 1.67
Score of ocular lesions: Conjunctiva Palpebral edema [16]: 3.33
Score of ocular lesions: Conjunctiva Palpebral redness [16]: 2.33
Score of ocular lesions: Cornea Area [16]: 0
Score of ocular lesions: Cornea Degree [16]: 0
Score of ocular lesions: Iris Values [16]: 1.00
Score of ocular lesions: Total score [16]: 12.66
Score of ocular lesions: Conjunctiva Bulbar redness (1.0%, Before instillation): 0
Score of ocular lesions: Conjunctiva Discharge (1.0%, Before instillation): 0
Score of ocular lesions: Conjunctiva Nictitating membrane (1.0%, Before instillation): 0
Score of ocular lesions: Conjunctiva Palpebral edema (1.0%, Before instillation): 0
Score of ocular lesions: Conjunctiva Palpebral redness (1.0%, Before instillation): 0
Score of ocular lesions: Cornea Area (1.0%, Before instillation): 0
Score of ocular lesions: Cornea Degree (1.0%, Before instillation): 0
Score of ocular lesions: Iris Values (1.0%, Before instillation): 0
Score of ocular lesions: Total score (1.0%, Before instillation): 0
Compound: C[C@@H](N)c1ccc(C(=O)Nc2ccncc2)cc1.Cl.Cl [Compound C, (R)-(+)-N-(4-pyridyl)-4-(1-aminoethyl)benzamide 2HCl]

Source: patent publication US6673812B1, “Preventives/remedies for glaucoma” (Senju Pharmaceutical Co., Ltd., priority 1998, dated 2004)
